According to US20100068747A1, “Generic Assay for Monitoring Endocytosis” (Evotec Technologies GmbH, priority 2005, published 2010):
“Also recorded” adds a separate entry of the source.

Tests used:
U2OS/ETAR-GFP cells [1] = assay: Internalization pathway analysis in U2OS/ETAR-GFP cells; assay type: cell-based, human
Experimental: With regard to the internalization pathway analysis in U2OS/ETAR-GFP cells, RDE was inhibited by including 5 mM β-methyl-cyclodextrin (CD) in the leveling medium. The following labeling and chase incubations were conducted in standard assay medium. For inhibition of clathrin mediated endocytosis cells were subjected to hypotonic shock by incubating 5 minutes at 37° C. in a 1:1 starvation medium-ddH2O mixture and then were transferred into a potassium (K^+) depleted assay medium for temperature leveling. The following labeling and chase incubations were also conducted in K^+ depleted assay medium, which was prepared by substituting sodium salts for all potassium salts in HBSS. Inhibition of both pathways was achieved by combining both methods and including 5 mM CD in the leveling medium for CLAME inhibition. For CLAME controls, 5 μg/ml Alexa Fluor 488 conjugated transferrin was included during the labeling period for all inhibited pathway scenarios. Protocol procedures were conducted as described, however, lectins were omitted in the labeling step. For lipid raft-dependent pathways there were no control markers available.

U2OS/ETAR-GFP cells [2] = assay: Lectin labeling of live cells, U2OS/ETAR-GFP; assay type: cell-based, human; conditions: TRITC-lectin, 10 nM at maximum
Experimental: (§1) Lectin labeling of live cells was conducted as follows: Cells were seeded as described above. After 24 hours cells were washed once with PBS and incubated in the incubator for another 2 hours in the respective standard medium without serum supplement to deprive them of serum factor mediated stimuli. This step was termed starvation period. Subsequently, cells were washed gently with PBS and incubated with 37° C. tempered assay medium comprised of Hank's Balanced Salt Solution (HBSS) pH 7.4, containing 20 mM HEPES and 30 mM D-glucose. The plate was left at RT for 30 minutes to slowly level its temperature and, thus, avoid capturing of temperature drop induced membrane dynamics. This period was termed leveling period. Then, assay medium was withdrawn and wells refilled with TRITC-lectin solutions at RT to start cell labeling. Several lectin concentrations in the low nano-molar range were tested. Molar concentrations were calculated from the data provided by Vector Labs. The plate was placed on a rotating shaker at low revolutions for 10 minutes while incubating. The start of the lectin incubation is referred to as assay starting point with t=0 min. After the 10 min incubation period the cells were gently washed with PBS and wells refilled with assay buffer at RT. Instantly thereafter, fluorescence signals were monitored predominately using the epifluorescence microscope.
(§2) The following microscopy and image analysis techniques were employed. When utilizing the epifluorescence microscope magnifications were adjusted according to the purpose of observation, e.g. single cell vs. cell collective. Concerning the filters U-MNU was used for Hoechst, U-MSWB for GFP, and U-N41007 for TRITC detection. Hoechst images were taken at 50 ms exposure time, GFP images at 100 to 200 ms and TRITC images needed 500 to 1000 ms. Overlay images were assembled with AnalySIS and tuned in color intensity to obtain the desired color contrast. Images taken to compare two experimental conditions, e.g. control vs. stimulus, featured identical exposure parameters. If possible, well areas were chosen that reflect similar states of confluence. Utilizing the Opera confocal fluorescence imager, the instrument was calibrated running standard methods for skew cropping (spatial camera alignments) and camera intensity normalization.

U2OS/ETAR-GFP cells [3] = assay: Lectin labeling of fixed cells, U2OS/ETAR-GFP; assay type: cell-based, human; conditions: TRITC-lectin 10 nM and 20 nM
Experimental: (§3) Lectin labeling of fixed cells was conducted as follows: To detach confluent cells in order to prepare experiments for internalization studies, cells were always treated with EDTA solution instead of trypsin solution. For all seeding, washing, and labeling steps in 96-well plates a working volume of 100 μl per well was assessed. Cells were seeded out into a 96-well plate at different concentrations. U2OS/ETAR-GFP suspensions were adjusted to yield 2*10^4 cells/well, both of the CHO cell lines must be at 2.5*10^4 cells/well. Cells became confluent after 24 hours of incubation. In the following, they were washed with phosphate buffered saline (PBS) and fixed with 3% PFA for 20 minutes at RT. Then, cells were washed again with PBS and incubated in 10 nM and 20 nM solutions of each TRITC-lectin candidate in PBS, respectively. Again, cells were washed with PBS to remove excess lectin, and wells were refilled with PBS for analysis. For specificity controls, lectin solutions were incubated for 30 minutes prior to the application with an excess of the monosaccharide that represents the respective glyco-epitope.
as §2

CHO/PAR-2 cells [4] = assay: Lectin labeling of fixed cells, CHO/PAR-2; assay type: cell-based; conditions: TRITC-lectin 10 nM and 20 nM
Experimental: as §3, §2

CHO/ETAR cells [5] = assay: Lectin labeling of live cells, CHO/ETAR; assay type: cell-based; conditions: TRITC-lectin, 10 nM at maximum
Experimental: as §1, §2

[6] = system: CHO/PAR-2 cell membrane protein; assay: Lectin blotting of PAR-2 membrane sample; assay type: binding; conditions: biotinylated lectin 5 μg/ml
Experimental: (§4) Membrane preparation was conducted as follows: Cells were cultured in five T175 flasks until confluency. Confluent cells were detached by applying 3 ml of EDTA solution onto the PBS washed cells. Following a 20-minute incubation at 37° C. and 5% CO2, cells were resuspended in 12 ml of starvation medium (standard medium without FCS), counted, and centrifuged in a Heraeus Megafuge 1.0R at 133 rcf for 4 minutes. All subsequent steps were carried out on ice and with ice cold solutions. After unification of all pellet fractions, hypotonic lysis buffer was added to the cells at a ratio of 1 ml per 5*10^7 cells. Additionally, protease inhibitor cocktail was added to 50 μl per 5*10^7 cells. Cells were homogenized with 30 strokes in a 5 ml potter on ice, centrifuged at 4° C. and 917 rcf for 10 minutes, and the supernatant was stored in an ultracentrifuge tube on ice. The pellet fraction was homogenized and centrifuged once again as described above. The supernatants of both procedures were unified and centrifuged at 4° C. and 100,000 rcf for 45 minutes in a Sorvall ultra-centrifuge. The supernatant of this centrifugation procedure was withdrawn and the pellet dissolved in 0.5 ml or 1.0 ml modified SDS PAGE loading buffer containing Tris-HCl, SDS, glycerol, but no β-mercapto-ethanol or dyes and stored in small aliquots of 50 μl at −20° C.
(§5) SDS-Page of membrane samples was conducted as follows: Discontinuous 12% polyacrylamide gels were prepared according to a standard protocol. Broad range marker and 25 μg membrane protein were mixed 1:1 with loading buffer and loaded five times onto a mini gel in alternating order. The gels were run at U=100 V for the first 20 minutes. Subsequently, voltage was increased to U=150 V. The run was aborted as soon as the pyronin G band reached the end of the gel. For coomassie staining, gels were put in coomassie staining solution on a shaker at low revolutions for 45 min. The staining solution was removed and the gel incubated with destaining solution for one to two hours, exchanging the solution several times until the desired contrast was obtained.
Blotting of membrane samples was conducted as follows: For blotting, 3 mm packs of Whatman papers were extensively soaked in one of the diverging blotting buffers, AB I, AB II, and CB, and a pile was assembled in a semi-dry Trans-Blot 3D system from Bio-Rad as depicted in the sketch of FIG. 2. Hybond nitrocellulose membrane was submerged in AB II prior to assembly. To smooth out any air bubbles from the pile, a Pasteur pipette was rolled several times over the top layer. The apparatus was closed and ran at U=25 V for 45 minutes. Then, the pile was disassembled, the membrane submerged in Ponceau S solution and gently swayed for 2 minutes. For destaining, ddH2O was substituted for the staining solution, and the membrane was briefly rinsed twice. After drying under ambient conditions, the marker bands were marked with a ballpoint-pen. The membrane was cut into slices each displaying one marker and one sample lane.
Probing of membrane samples was conducted as follows: For classical western blotting, membranes were blocked in PBS containing 5% low fat dried milk powder. They were placed on a rotating shaker at low revolutions for 1 hour. Subsequently, membranes were sealed in plastic bags with blocking solution additionally containing 1 μg/ml anti-PAR-2 antibody (1:400) or 0.5 μg/ml of anti-ETAR antibody (1:500), depending on the respective recombinant cell type used for the sample. […]

CHO/ETAR cells [7] = assay: Lectin labeling of fixed cells, CHO/ETAR; assay type: cell-based; conditions: TRITC-lectin 10 nM and 20 nM
Experimental: as §3, §2

CHO/PAR-2 cells [8] = assay: Lectin labeling of live cells, CHO/PAR-2; assay type: cell-based; conditions: TRITC-lectin, 10 nM at maximum
Experimental: as §1, §2

live cells = assay: Signal transformation on live cells after labeling with fluorescent lectins (all cell lines); assay type: cell-based; conditions: all experiments
Experimental: as §1, with “The plate was placed on a rotating shaker at low revolutions for 10 minutes while incubating. The start of the lectin incubation is referred to as assay starting point with t=0 min. After the 10 min incubation period the cells were gently washed with PBS and wells refilled with assay buffer at RT.” left out
The following microscopy and image analysis techniques were employed. […] Utilizing the Opera confocal fluorescence imager, the instrument was calibrated running standard methods for skew cropping (spatial camera alignments) and camera intensity normalization.

U2OS cells = assay: Specificity control with competing monosaccharide on fixed cells; assay type: cell-based, human; conditions: excess of inhibitory monosaccharide
Experimental: as §3

[9] = system: CHO/ETAR cell membrane protein; assay: Lectin blotting of ETAR membrane sample; assay type: binding; conditions: biotinylated lectin 5 μg/ml
Experimental: as §4
as §5, with “obtained. […]” for “obtained.”

U2OS/ETAR-GFP cells [10] = assay: Effect of lectin incubation on morphology of live cells; assay type: cell-based, human; conditions: 5 nM, 10 nM, and 20 nM versus the control
Experimental: as §1

U2OS/ETAR-GFP cells [11] = assay: Serum supplements (insulin) in live cell labeling; assay type: cell-based, human; conditions: 20 nM in assay medium in labeling and chase incubations
Experimental: For serum supplements in live cell labeling, starvation was carried out in Opti-MEM medium (11058; Gibco—Invitrogen, Karlsruhe, Germany). The following labeling and chase incubations were conducted in assay medium with a 20 nM insulin supplement.

| Substance | Live cell staining of U2OS/ETAR-GFP (U2OS/ETAR-GFP cells [2]) | Staining of U2OS/ETAR-GFP (U2OS/ETAR-GFP cells [3]) | Staining of CHO/PAR-2 (CHO/PAR-2 cells [4]) | Live cell staining of CHO/ETAR (CHO/ETAR cells [5]) | Staining of CHO/ETAR (CHO/ETAR cells [7]) | Live cell staining of CHO/PAR-2 (CHO/PAR-2 cells [8]) | fluorescent signal in the presence of the competing monosaccharide (U2OS cells) | also measured |
| --- | --- | --- | --- | --- | --- | --- | --- | --- |
| Alexa-Fluor® 488-transferrin: Human holo-transferrin-Alexa Fluor 488 conjugate, standard marker of the clathrin-mediated pathway | – | – | – | – | – | – | – | signals of clathrin-mediated pathway marker (U2OS/ETAR-GFP cells [1]; 5 μg/ml, all conditions but inhibition of the clathrin-dependent pathway): detected in the perinuclear region |
| Griffonia (Bandeiraea) simplicifolia lectin [GSL-I] | signal points were significantly smaller and less; also recorded: small, scattered | very faint signal covering only some single cells; also recorded: weak single cell | reduced intensity with a high background; also recorded: weak cell surface | – | – | – | – | – |
| Lens culinaris agglutin [LCA] | spot formation | extensive fluorescence was observed at the cell surface | reduced intensity with a high background; also recorded: weak cell surface | fluorescence accumulation in the form of tiny points around the cell boundaries; also recorded: cell boundary, points | cell surface | spot formation | – | band at the same height as the western band (55 kDa, anti-PAR-2) [6]: one of them matching the height of the western band; bands detected above 35 kDa ([6]; exposure one to five minutes): four |
| Phaseolus vulgaris erythroagglutin [PHA-E] | spot formation | extensive fluorescence was observed at the cell surface | signals clearly marking individual cells; also recorded: cell surface | cell surface, sequestered | cell surface | strong signal contrast between the relatively unstained nucleus area and its fluorescing perimeter; also recorded: spot formation | reduced | stability of fluorescence signal over time (live cells): fairly stable signals |
| Phaseolus vulgaris leucoagglutin [PHA-L] | spot formation | extensive fluorescence was observed at the cell surface | signals clearly marking individual cells; also recorded: cell surface | cell surface, sequestered | cell surface | strong signal contrast between the relatively unstained nucleus area and its fluorescing perimeter; also recorded: spot formation | reduced | stability of fluorescence signal over time (live cells): fairly stable signals |
| Pisum sativum agglutin [PSA] | spot formation | extensive fluorescence was observed at the cell surface | reduced intensity with a high background; also recorded: weak cell surface | – | – | – | – | band at the same height as in the western (47 kDa, anti-ETAR) [9]: could clearly be detected |
| Sophora japonica agglutin [SJA] | medium sized, scattered spots | only several little, spot-like signals on each cell; also recorded: weak spots on cell | – | – | – | – | reduced | effect on U2OS/ETAR-GFP cells, phase contrast (U2OS/ETAR-GFP cells [10]): Irritating effect |
| porcine insulin | – | – | – | – | – | – | – | effect on spot formation of sWGA signal (U2OS/ETAR-GFP cells [11]): complete suppression of spot formation |
| β-methyl-cyclodextrin | – | – | – | – | – | – | – | spot formation of sWGA signal under inhibition of raft-dependent pathways (U2OS/ETAR-GFP cells [1]; 5 mM in leveling medium, cholesterol extraction): did not impede the typical spot formation |
